Experimental data taken from the supplement of paper PMC10627819.

Key:
B. subtilis 168 [1] = experiment: fitness (endpoint OD595 vs no drug) (fraction); higher = more growth
Summary of the method: (§1)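 Volumes were 30 µl per well, or 55 µl for S. pneumoniae, in 384-well plates inoculated at OD595 0.01. Media were TSB, LB Lennox or CY at 37 °C, and OD595 was read every 30 min for 14 h with first-reading background subtraction. Fitness is the ratio of optical density at stationary-phase entry to the robust mean of no-drug controls. That ratio is capped at 1.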

S. aureus DSM 20231 [2] = experiment: as above
Summary of the method: as §1

S. aureus Newman [3] = experiment: as above
Summary of the method: as §1

S. pneumoniae D39V [4] = experiment: as above
Summary of the method: as §1

B. subtilis 168 [5] = experiment: Bliss interaction score (quartile over a dose matrix) (fitness difference); higher = more antagonism (negative = synergy)
Summary of the method: (§2)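 Fitness was defined as normalised growth: OD595 at the start of stationary phase divided by the plate's robust no-drug mean and capped at 1. Single-drug fitness was inferred from combination measurements. The Bliss score is observed fitness minus the product of the single-drug values, summarised by quartiles across technical, biological and donor/recipient replicates.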

S. aureus DSM 20231 [6] = experiment: as above
Summary of the method: as §2

S. aureus Newman [7] = experiment: as above
Summary of the method: as §2

S. pneumoniae D39V [8] = experiment: as above
Summary of the method: as §2
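Throughout, for Bliss interaction score (quartile over a dose matrix): first quartile when negative (synergy) and third quartile when positive (antagonism).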

CO/N=C(\C(=O)N[C@@H]1C(=O)N2C(C(=O)O)=C(COC(C)=O)CS[C@H]12)c1csc(N)n1 [Cefotaxime] + CCN(CC)CCOC(=O)c1ccc(N)cc1 [Procaine]
fitness, one replicate
Conditions	partner 85.5 µg/mL	partner 171 µg/mL	partner 342 µg/mL
B. subtilis 168 [1], first compound 0.00775 µg/mL	0.834	0.848	0.811
B. subtilis 168 [1], first compound 0.0155 µg/mL	0.701	0.691	0.64
B. subtilis 168 [1], first compound 0.031 µg/mL	0.583	0.572	0.561
S. aureus DSM 20231 [2], first compound 0.039 µg/mL	0.632	0.766	0.762
S. aureus Newman [3], first compound 0.078 µg/mL	0.608	0.612	0.595
S. aureus Newman [3], first compound 0.156 µg/mL	0.454	0.459	0.438
S. aureus Newman [3], first compound 0.312 µg/mL	0.276	0.255	0.264

fitness
Conditions	partner 85.5 µg/mL	partner 171 µg/mL	partner 342 µg/mL
B. subtilis 168 [1], first compound 0.5 µg/mL	0.243	0.225	0.259
B. subtilis 168 [1], first compound 1 µg/mL	0.165	0.125	0.169
B. subtilis 168 [1], first compound 2 µg/mL	0.0861	0.0682	0.118
S. aureus DSM 20231 [2], first compound 0.078 µg/mL	0.721	0.786	0.77
S. aureus DSM 20231 [2], first compound 0.156 µg/mL	0.62	0.703	0.712
S. aureus DSM 20231 [2], first compound 0.312 µg/mL	0.579	0.67	0.664
S. aureus Newman [3], first compound 0.625 µg/mL	0.169	0.111	0.139
S. aureus Newman [3], first compound 1.25 µg/mL	0.0581	0.0383	0.0412
S. aureus Newman [3], first compound 2.5 µg/mL	0.0238	0.0269	0.0485
S. pneumoniae D39V [4], first compound 0.0018 µg/mL	≥ 1	≥ 1	≥ 1
S. pneumoniae D39V [4], first compound 0.0035 µg/mL	0.954	≥ 1	0.945
S. pneumoniae D39V [4], first compound 0.007 µg/mL	0.904	0.92	0.844

Conditions	Bliss interaction score
B. subtilis 168 [5]	0.0852
S. aureus DSM 20231 [6]	-0.0909
S. aureus Newman [7]	-0.0467
S. pneumoniae D39V [8]	-0.0264

CO/N=C(\C(=O)N[C@@H]1C(=O)N2C(C(=O)O)=C(COC(C)=O)CS[C@H]12)c1csc(N)n1 [Cefotaxime] + CN(N=O)C(=O)N[C@@H](C=O)[C@@H](O)[C@H](O)[C@H](O)CO [Streptozotocin]
fitness, one replicate
Conditions	partner 0.15 µg/mL	partner 0.3 µg/mL	partner 0.6 µg/mL
B. subtilis 168 [1], first compound 0.00775 µg/mL	0.767	0.832	0.787
B. subtilis 168 [1], first compound 0.0155 µg/mL	0.721	0.743	0.715
B. subtilis 168 [1], first compound 0.031 µg/mL	0.526	0.518	0.502
B. subtilis 168 [1], first compound 0.5 µg/mL	0.34	0.342	0.347
B. subtilis 168 [1], first compound 1 µg/mL	0.132	0.136	0.146
B. subtilis 168 [1], first compound 2 µg/mL	0.0874	0.126	0.183
S. aureus DSM 20231 [2], first compound 0.039 µg/mL	0.756	0.675	0.551
S. aureus Newman [3], first compound 0.625 µg/mL	0.0252	0.0161	0
S. aureus Newman [3], first compound 1.25 µg/mL	0.023	0.0017	0
S. aureus Newman [3], first compound 2.5 µg/mL	0.0355	0.0302	0

fitness
Conditions	first compound 0.0018 µg/mL	first compound 0.0035 µg/mL	first compound 0.007 µg/mL	first compound 0.078 µg/mL	first compound 0.156 µg/mL	first compound 0.312 µg/mL
S. aureus DSM 20231 [2], partner 0.15 µg/mL	–	–	–	0.691	0.653	0.609
S. aureus DSM 20231 [2], partner 0.3 µg/mL	–	–	–	0.612	0.617	0.614
S. aureus DSM 20231 [2], partner 0.6 µg/mL	–	–	–	0.552	0.564	0.521
S. aureus Newman [3], partner 0.15 µg/mL	–	–	–	0.641	0.476	0.253
S. aureus Newman [3], partner 0.3 µg/mL	–	–	–	0.539	0.389	0.133
S. aureus Newman [3], partner 0.6 µg/mL	–	–	–	0.403	0.204	0.0516
S. pneumoniae D39V [4], partner 1.2 µg/mL	0.957	0.963	0.889	–	–	–
S. pneumoniae D39V [4], partner 2.4 µg/mL	0.97	0.964	0.775	–	–	–
S. pneumoniae D39V [4], partner 4.8 µg/mL	0.978	0.938	0.861	–	–	–

Conditions	Bliss interaction score
B. subtilis 168 [5]	0.0848
S. aureus DSM 20231 [6]	-0.0448
S. aureus Newman [7]	-0.0599
S. pneumoniae D39V [8]	0.0325

Cc1ncc([N+](=O)[O-])n1CCO [Metronidazole] + Cc1cc(NS(=O)(=O)c2ccc(N)cc2)no1 [Sulfamethoxazol]
one replicate
Conditions	fitness
B. subtilis 168 [1], first compound 0.625 µg/mL, partner 0.5 µg/mL	≥ 1
B. subtilis 168 [1], first compound 1.25 µg/mL, partner 0.5 µg/mL	≥ 1
B. subtilis 168 [1], first compound 2.5 µg/mL, partner 0.5 µg/mL	≥ 1
S. aureus Newman [3], first compound 0.625 µg/mL, partner 8 µg/mL	0.864
S. aureus Newman [3], first compound 0.781 µg/mL, partner 1 µg/mL	≥ 1
S. aureus Newman [3], first compound 0.781 µg/mL, partner 2 µg/mL	≥ 1
S. aureus Newman [3], first compound 0.781 µg/mL, partner 4 µg/mL	≥ 1
S. aureus Newman [3], first compound 1.25 µg/mL, partner 8 µg/mL	0.911
S. aureus Newman [3], first compound 1.562 µg/mL, partner 1 µg/mL	≥ 1
S. aureus Newman [3], first compound 1.562 µg/mL, partner 2 µg/mL	≥ 1
S. aureus Newman [3], first compound 1.562 µg/mL, partner 4 µg/mL	≥ 1
S. aureus Newman [3], first compound 2.5 µg/mL, partner 8 µg/mL	0.898
S. aureus Newman [3], first compound 3.124 µg/mL, partner 1 µg/mL	0.992
S. aureus Newman [3], first compound 3.124 µg/mL, partner 2 µg/mL	0.982
S. aureus Newman [3], first compound 3.124 µg/mL, partner 4 µg/mL	≥ 1
S. pneumoniae D39V [4], first compound 1.25 µg/mL, partner 1 µg/mL	0.979
S. pneumoniae D39V [4], first compound 1.25 µg/mL, partner 2 µg/mL	≥ 1
S. pneumoniae D39V [4], first compound 1.25 µg/mL, partner 4 µg/mL	0.916
S. pneumoniae D39V [4], first compound 2.5 µg/mL, partner 1 µg/mL	≥ 1
S. pneumoniae D39V [4], first compound 2.5 µg/mL, partner 2 µg/mL	≥ 1
S. pneumoniae D39V [4], first compound 2.5 µg/mL, partner 4 µg/mL	0.917
S. pneumoniae D39V [4], first compound 5 µg/mL, partner 1 µg/mL	≥ 1
S. pneumoniae D39V [4], first compound 5 µg/mL, partner 2 µg/mL	≥ 1
S. pneumoniae D39V [4], first compound 5 µg/mL, partner 4 µg/mL	0.9

fitness
Conditions	first compound 0.625 µg/mL	first compound 1.073 µg/mL	first compound 1.25 µg/mL	first compound 2.145 µg/mL	first compound 2.5 µg/mL	first compound 4.29 µg/mL
B. subtilis 168 [1], partner 1 µg/mL	0.876	–	0.951	–	0.948	–
B. subtilis 168 [1], partner 2 µg/mL	0.91	–	0.903	–	0.896	–
B. subtilis 168 [1], partner 4 µg/mL	0.962	–	0.992	–	0.96	–
S. aureus DSM 20231 [2], partner 1 µg/mL	0.982	–	≥ 1	–	≥ 1	–
S. aureus DSM 20231 [2], partner 2 µg/mL	0.983	–	0.986	–	0.988	–
S. aureus DSM 20231 [2], partner 4 µg/mL	0.963	–	0.969	–	0.992	–
S. aureus Newman [3], partner 1 µg/mL	≥ 1	–	0.977	–	0.97	–
S. aureus Newman [3], partner 2 µg/mL	0.94	–	0.978	–	0.95	–
S. aureus Newman [3], partner 4 µg/mL	0.979	–	0.997	–	≥ 1	–
S. pneumoniae D39V [4], partner 1 µg/mL	–	0.935	–	0.792	–	0.912
S. pneumoniae D39V [4], partner 2 µg/mL	–	0.952	–	0.93	–	0.95
S. pneumoniae D39V [4], partner 4 µg/mL	–	0.984	–	0.952	–	0.944

Conditions	Bliss interaction score
B. subtilis 168 [5]	0.0475
S. aureus DSM 20231 [6]	0.0776
S. aureus Newman [7]	0.0439
S. pneumoniae D39V [8]	-0.0219

COc1cccc2c1C(=O)c1c(O)c3c(c(O)c1C2=O)C[C@@](O)(C(=O)CO)C[C@@H]3O[C@H]1C[C@H](N)[C@H](O)[C@H](C)O1 [Doxorubicin] + CN(N=O)C(=O)N[C@@H](C=O)[C@@H](O)[C@H](O)[C@H](O)CO [Streptozotocin]
fitness
Conditions	first compound 0.25 µg/mL	first compound 0.5 µg/mL	first compound 0.625 µg/mL	first compound 1 µg/mL	first compound 1.25 µg/mL	first compound 2.5 µg/mL
B. subtilis 168 [1], partner 0.15 µg/mL	–	–	0.961	–	0.957	0.663
B. subtilis 168 [1], partner 0.3 µg/mL	–	–	≥ 1	–	0.956	0.582
B. subtilis 168 [1], partner 0.6 µg/mL	–	–	0.993	–	0.939	0.627
S. aureus DSM 20231 [2], partner 0.15 µg/mL	–	–	0.762	–	0.828	0.787
S. aureus DSM 20231 [2], partner 0.3 µg/mL	–	–	0.741	–	0.726	0.746
S. aureus DSM 20231 [2], partner 0.6 µg/mL	–	–	0.631	–	0.651	0.595
S. aureus Newman [3], partner 0.15 µg/mL	–	–	0.702	–	0.7	0.709
S. aureus Newman [3], partner 0.3 µg/mL	–	–	0.656	–	0.68	0.646
S. aureus Newman [3], partner 0.6 µg/mL	–	–	0.607	–	0.604	0.541
S. pneumoniae D39V [4], partner 1.2 µg/mL	0.919	0.929	–	0.852	–	–
S. pneumoniae D39V [4], partner 2.4 µg/mL	0.898	0.919	–	0.866	–	–
S. pneumoniae D39V [4], partner 4.8 µg/mL	0.966	0.972	–	0.91	–	–

Conditions	Bliss interaction score
B. subtilis 168 [5]	0.0771
S. aureus DSM 20231 [6]	-0.0251
S. aureus Newman [7]	0.11
S. pneumoniae D39V [8]	0.0618
